Data taken from patent US20180042953A1, “ANTIBACTERIAL INJECTABLE PHARMACEUTICAL COMPOSITION” (OBSHCHESTVO S OGRANICHENNOY OTVETSTVENNOSTYU "VIK - …, priority 2012, published 2018).

Assay: Azithromycin solubility in organic solvents
Type: physicochemical

CC[C@H]1OC(=O)[C@H](C)[C@@H](O[C@H]2C[C@@](C)(OC)[C@@H](O)[C@H](C)O2)[C@H](C)[C@@H](O[C@@H]2O[C@H](C)C[C@H](N(C)C)[C@H]2O)[C@](C)(O)C[C@@H](C)CN(C)[C@H](C)[C@@H](O)[C@]1(C)O [Azithromycin, (2R,3S,4R,5R,8R,10R,11R,12S,13S,14R)-13-[(2,6-dioxy-3-C-methyl-3-O-methyl-a-L-ribohexopyranozyl)oxy]-2-ethyl-3,4, 10-trihydroxy-3,5,6,8,10,12,14-heptamethyl-11-[[3,4,6-trideoxy-3-(dimethylamino)-b-D-xylo-hexapyranozyl]oxy]-1-ox-6-azacyclopentadecane-15-one] showed a Maximum azithromycin conc. (solvent 2-Pyrrolidone) of 28.9%, a Maximum azithromycin conc. (solvent 3,3-dimethyl-2-pyrrolidone) of 26.4% and a Maximum azithromycin conc. (solvent Dimethylacetamide) of 32.1%. For the same compound, the Maximum azithromycin conc. (solvent Dimethylsulfoxide) was 26.4%, the Maximum azithromycin conc. (solvent N-ethoxy-2-pyrrolidone) was 23.3% and the Maximum azithromycin conc. (solvent N-ethyl-2-pyrrolidone) was 25.8%. For the same compound, the Maximum azithromycin conc. (solvent N-methyl-2-pyrrolidone) was 31.2%, the Maximum azithromycin conc. (solvent N-octyl-2-pyrrolidone) was 21.5% and the Maximum azithromycin conc. (solvent Propylene glycol) was 13.4%. The Maximum azithromycin conc. (solvent Transcutol) was 10.2%.
